Data taken from PMC6899459 (Chemmedchem, 2019).
Square brackets hold non-standard residues; d marks the D form. Peptide text beside a SMILES is read from it. Trp(3S-Ph) = N[C@H](C(=O)O)[C@@H](c1ccccc1)c1c[nH]c2ccccc12; Trp(βR-Ph) = N[C@H](C(=O)O)[C@H](c1ccccc1)c1c[nH]c2ccccc12; d2Nal = N[C@H](Cc1ccc2ccccc2c1)C(=O)O; dBta = N[C@H](Cc1csc2ccccc12)C(=O)O; Inp = O=C(O)C1CCNCC1

Target: ghrelin receptor (Homo sapiens, UniProt Q92847)
Assay: IP-One assay
Type: cell-based
Details: for potency loss relative to ghrelin: IP-One assay, COS7 cells with ghrelin receptor; for EC50 / E max [Δ%]: SEM; for E max [Δ%]: difference between constitutive activity and maximal effect, mean±SEM of >=2 independent experiments
[1] = normalized to ghrelin (5) efficacy (ghrelin analogues and multiple modified agonists)
[2] = normalized to KbFwLL-NH2 (15) (inverse agonists and 13)

ghrelin receptor, sequence (Q92847 whole entry): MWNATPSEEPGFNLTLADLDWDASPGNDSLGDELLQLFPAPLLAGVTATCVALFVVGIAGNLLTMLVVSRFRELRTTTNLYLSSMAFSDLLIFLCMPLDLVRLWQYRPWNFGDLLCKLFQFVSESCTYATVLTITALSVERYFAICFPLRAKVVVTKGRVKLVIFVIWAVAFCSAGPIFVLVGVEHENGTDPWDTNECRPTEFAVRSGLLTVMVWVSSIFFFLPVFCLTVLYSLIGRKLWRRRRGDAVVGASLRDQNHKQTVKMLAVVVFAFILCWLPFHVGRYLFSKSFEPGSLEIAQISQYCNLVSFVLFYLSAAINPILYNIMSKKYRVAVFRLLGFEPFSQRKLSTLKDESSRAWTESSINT

Row | SMILES | potency loss relative to ghrelin | EC50 | E max [Δ%] [1] | E max [Δ%] [2]
1 | CCCCCCCC(=O)OC[C@H](NC(=O)[C@H](CO)NC(=O)CN)C(=O)N[C@H](C(=O)N[C@@H](CC(C)C)C(=O)N[C@@H](CO)C(=O)N1CCC[C@H]1C(=O)N[C@@H](CCC(=O)O)C(=O)N[C@@H](Cc1c[nH]cn1)C(=O)N[C@@H](CCC(N)=O)C(=O)N[C@@H](CCCNC(=N)N)C(=O)N[C@H](C(=O)N[C@@H](CCC(N)=O)C(=O)N[C@@H](CCC(N)=O)C(=O)N[C@@H](CCCNC(=N)N)C(=O)N[C@@H](CCCCN)C(=O)N[C@@H](CCC(=O)O)C(=O)N[C@@H](CO)C(=O)N[C@@H](CCCCN)C(=O)N[C@@H](CCCCN)C(=O)N1CCC[C@H]1C(=O)N1CCC[C@H]1C(=O)N[C@@H](C)C(=O)N[C@@H](CCCCN)C(=O)N[C@@H](CC(C)C)C(=O)N[C@@H](CCC(N)=O)C(=O)N1CCC[C@H]1C(=O)N[C@@H](CCCNC(=N)N)C(=O)O)C(C)C)[C@H](c1ccccc1)c1c[nH]c2ccccc12 [Peptide 6, Wrf^4‐ghrelin] | about 12 fold | 32.4 nM | 98±2 Δ% | 
2 | CCCCCCCC(=O)OC[C@H](NC(=O)[C@H](CO)NC(=O)CN)C(=O)N[C@H](C(=O)N[C@@H](CC(C)C)C(=O)N[C@@H](CO)C(=O)N1CCC[C@H]1C(=O)N[C@@H](CCC(=O)O)C(=O)N[C@@H](Cc1c[nH]cn1)C(=O)N[C@@H](CCC(N)=O)C(=O)N[C@@H](CCCNC(=N)N)C(=O)N[C@H](C(=O)N[C@@H](CCC(N)=O)C(=O)N[C@@H](CCC(N)=O)C(=O)N[C@@H](CCCNC(=N)N)C(=O)N[C@@H](CCCCN)C(=O)N[C@@H](CCC(=O)O)C(=O)N[C@@H](CO)C(=O)N[C@@H](CCCCN)C(=O)N[C@@H](CCCCN)C(=O)N1CCC[C@H]1C(=O)N1CCC[C@H]1C(=O)N[C@@H](C)C(=O)N[C@@H](CCCCN)C(=O)N[C@@H](CC(C)C)C(=O)N[C@@H](CCC(N)=O)C(=O)N1CCC[C@H]1C(=O)N[C@@H](CCCNC(=N)N)C(=O)O)C(C)C)[C@@H](c1ccccc1)c1c[nH]c2ccccc12 [Peptide 7, Wsf^4‐ghrelin] | about 12 fold | 33.9 nM | 96±2 Δ% | 
3 | CC(C)C[C@H](NC(=O)[C@H](CC(C)C)NC(=O)[C@@H](Cc1c[nH]c2ccccc12)NC(=O)[C@H](Cc1ccccc1)NC(=O)[C@@H](Cc1c[nH]c2ccccc12)NC(=O)[C@@H](N)CCCCN)C(N)=O [Peptide 8, KwFwLL‐NH2, reference compound] |  | 182 nM |  | 66±3 Δ%
4 | CC(C)C[C@H](NC(=O)[C@H](CC(C)C)NC(=O)[C@@H](Cc1c[nH]c2ccccc12)NC(=O)[C@H](Cc1ccccc1)NC(=O)[C@@H](NC(=O)[C@@H](N)CCCCN)[C@H](c1ccccc1)c1c[nH]c2ccccc12)C(N)=O [Peptide 9, K‐Wrf‐FwLL‐NH2] |  |  |  | 72±2 Δ%
5 | CC(C)C[C@H](NC(=O)[C@H](CC(C)C)NC(=O)[C@@H](Cc1c[nH]c2ccccc12)NC(=O)[C@@H](NC(=O)[C@@H](Cc1c[nH]c2ccccc12)NC(=O)[C@@H](N)CCCCN)[C@H](c1ccccc1)c1c[nH]c2ccccc12)C(N)=O [Peptide 11, Kw‐Wrf‐wLL‐NH2] (H-K[dW][Trp(βR-Ph)][dW]LL-NH2; N-terminus assumed) |  | 148 nM |  | 55±4 Δ%
6 | CC(C)C[C@H](NC(=O)[C@H](CC(C)C)NC(=O)[C@@H](Cc1c[nH]c2ccccc12)NC(=O)[C@@H](NC(=O)[C@@H](Cc1c[nH]c2ccccc12)NC(=O)[C@@H](N)CCCCN)[C@@H](c1ccccc1)c1c[nH]c2ccccc12)C(N)=O [Peptide 12, Kw‐Wsf‐wLL‐NH2] (H-K[dW][Trp(3S-Ph)][dW]LL-NH2; N-terminus assumed) |  | 282 nM |  | 77±4 Δ%
7 | CC(C)C[C@H](NC(=O)[C@H](CC(C)C)NC(=O)[C@@H](NC(=O)[C@H](Cc1ccccc1)NC(=O)[C@@H](Cc1c[nH]c2ccccc12)NC(=O)[C@@H](N)CCCCN)[C@H](c1ccccc1)c1c[nH]c2ccccc12)C(N)=O [Peptide 13, KwF‐Wrf‐LL‐NH2] |  | 912 nM |  | 39±3 Δ%
8 | CC(C)C[C@H](NC(=O)[C@H](CC(C)C)NC(=O)[C@@H](Cc1c[nH]c2ccccc12)NC(=O)[C@@H](NC(=O)[C@@H](Cc1csc2ccccc12)NC(=O)[C@@H](N)CCCCN)[C@H](c1ccccc1)c1c[nH]c2ccccc12)C(N)=O [Peptide 16, Kb‐Wrf‐wLL‐NH2] (H-K[dBta][Trp(βR-Ph)][dW]LL-NH2; N-terminus assumed) |  | 550 nM |  | 56±3 Δ%
9 | C[C@H](N)C(=O)N[C@H](Cc1c[nH]c2ccccc12)C(=O)N[C@@H](Cc1ccccc1)C(=O)N[C@H](Cc1ccc2ccccc2c1)C(=O)N1CCC(C(N)=O)CC1 [Peptide 18, AwFn‐Isn‐NH2, reference compound] (H-A[dW]F[d2Nal][Inp]-NH2; N-terminus assumed) |  | 16.6 nM | 110±6 Δ% | 
10 | C[C@H](N)C(=O)N[C@H](Cc1c[nH]c2ccccc12)C(=O)N[C@@H](Cc1ccccc1)C(=O)N[C@H](C(=O)N1CCC(C(N)=O)CC1)[C@H](c1ccccc1)c1c[nH]c2ccccc12 [Peptide 20, AwF‐Wrf‐Isn‐NH2] (H-A[dW]F[Trp(βR-Ph)][Inp]-NH2; N-terminus assumed) |  | 27.5 nM | 105±3 Δ% | 
11 | C[C@H](N)C(=O)N[C@H](Cc1c[nH]c2ccccc12)C(=O)N[C@@H](Cc1ccccc1)C(=O)N[C@H](C(=O)N1CCC(C(N)=O)CC1)[C@@H](c1ccccc1)c1c[nH]c2ccccc12 [Peptide 21, AwF‐Wsf‐Isn‐NH2] (H-A[dW]F[Trp(3S-Ph)][Inp]-NH2; N-terminus assumed) |  | 83.2 nM | 95±2 Δ% | 
